What all share (assay): Trk enzyme assay ([33P] incorporation into poly-EAY)
Type in all cases: biochemical

In one assay the target is TrkA WT (Homo sapiens, UniProt P04629). Particulars: wild-type TrkA enzyme; 22° C., 60 minutes.
In a further assay the target is TrkA V573M (Homo sapiens, UniProt P04629, V573M). The conditions noted are these: mutant TrkA V573M enzyme; 22° C., 60 minutes.
The target of another assay is TrkA F589L (Homo sapiens, UniProt P04629, F589L). Particulars: mutant TrkA F589L enzyme; 22° C., 60 minutes.
Another assay addresses TrkA G595R (Homo sapiens, UniProt P04629, G595R). Particulars: mutant TrkA G595R enzyme; 22° C., 60 minutes.
The next assay addresses TrkA G667C (Homo sapiens, UniProt P04629, G667C). Particulars: mutant TrkA G667C enzyme; 22° C., 60 minutes.
The next assay concerns the target TrkA G667S (Homo sapiens, UniProt P04629, G667S). The conditions noted are these: mutant TrkA G667S enzyme; 22° C., 60 minutes.
A further assay has as its target TrkB WT (Homo sapiens, UniProt Q16620). The conditions noted are these: wild-type TrkB enzyme; 22° C., 60 minutes.
Another assay concerns the target TrkB G623R (Homo sapiens, UniProt Q16620, G623R). Particulars: mutant TrkB G623R enzyme; 22° C., 60 minutes.
The next assay concerns the target TrkC WT (Homo sapiens, UniProt Q16288, S70N). The conditions noted are these: wild-type TrkC enzyme; 22° C., 60 minutes.
The target of a further assay is TrkC G623R (Homo sapiens, UniProt Q16288, G623R/S70N). The conditions noted are these: mutant TrkC G623R enzyme; 22° C., 60 minutes.
For a further assay, the target named is TrkC F617L (Homo sapiens, UniProt Q16288, F617L/S70N). Particulars: mutant TrkC F617L enzyme; 22° C., 60 minutes.
Chain of TrkC F617L (Q16288 32-839 S70N/F617L): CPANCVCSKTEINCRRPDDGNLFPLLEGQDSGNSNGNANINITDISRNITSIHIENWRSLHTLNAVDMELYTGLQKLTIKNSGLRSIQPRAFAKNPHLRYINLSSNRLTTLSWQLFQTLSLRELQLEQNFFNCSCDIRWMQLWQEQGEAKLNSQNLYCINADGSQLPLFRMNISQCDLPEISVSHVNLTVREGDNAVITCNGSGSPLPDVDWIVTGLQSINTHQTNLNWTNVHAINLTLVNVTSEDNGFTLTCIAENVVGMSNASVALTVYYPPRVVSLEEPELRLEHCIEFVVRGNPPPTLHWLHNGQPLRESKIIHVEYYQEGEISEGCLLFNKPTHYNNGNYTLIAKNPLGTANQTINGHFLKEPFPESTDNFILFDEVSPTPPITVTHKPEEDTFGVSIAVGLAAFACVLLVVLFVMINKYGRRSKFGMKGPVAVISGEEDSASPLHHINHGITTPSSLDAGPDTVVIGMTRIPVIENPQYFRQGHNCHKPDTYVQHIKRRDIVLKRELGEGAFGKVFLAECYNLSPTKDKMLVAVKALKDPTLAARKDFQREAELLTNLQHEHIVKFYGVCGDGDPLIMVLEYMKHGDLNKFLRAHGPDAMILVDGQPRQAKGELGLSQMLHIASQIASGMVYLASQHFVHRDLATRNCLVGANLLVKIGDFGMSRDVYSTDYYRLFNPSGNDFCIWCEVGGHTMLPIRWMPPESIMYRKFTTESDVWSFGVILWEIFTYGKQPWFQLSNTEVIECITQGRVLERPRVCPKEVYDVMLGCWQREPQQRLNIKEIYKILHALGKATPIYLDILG

Chain of TrkA WT (P04629 33-796): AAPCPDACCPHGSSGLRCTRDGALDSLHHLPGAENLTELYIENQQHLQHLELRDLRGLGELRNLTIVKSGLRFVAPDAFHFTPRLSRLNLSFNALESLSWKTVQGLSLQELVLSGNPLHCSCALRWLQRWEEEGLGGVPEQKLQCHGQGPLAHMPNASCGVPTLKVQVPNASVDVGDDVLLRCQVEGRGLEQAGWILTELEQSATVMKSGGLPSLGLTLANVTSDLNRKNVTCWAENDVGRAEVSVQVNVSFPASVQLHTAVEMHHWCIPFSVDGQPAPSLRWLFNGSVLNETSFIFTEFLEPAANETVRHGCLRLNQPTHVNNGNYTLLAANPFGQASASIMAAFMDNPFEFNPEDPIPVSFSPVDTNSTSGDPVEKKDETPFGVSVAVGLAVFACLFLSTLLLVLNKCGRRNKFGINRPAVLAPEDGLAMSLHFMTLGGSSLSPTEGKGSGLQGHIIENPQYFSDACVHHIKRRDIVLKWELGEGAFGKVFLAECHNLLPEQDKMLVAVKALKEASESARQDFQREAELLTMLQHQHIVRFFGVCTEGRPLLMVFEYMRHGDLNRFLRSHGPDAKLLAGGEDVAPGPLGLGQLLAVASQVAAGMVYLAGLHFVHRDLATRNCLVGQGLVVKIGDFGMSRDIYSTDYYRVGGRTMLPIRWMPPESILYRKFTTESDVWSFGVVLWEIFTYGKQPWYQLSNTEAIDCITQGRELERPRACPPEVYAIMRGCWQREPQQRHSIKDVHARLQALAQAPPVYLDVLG
Chain of TrkA G667C (P04629 33-796 G667C): as the sequence (P04629 33-796) above, with G635C counted along it
Chain of TrkA G667S (P04629 33-796 G667S): as the sequence (P04629 33-796) above, with G635S counted along it
Chain of TrkA F589L (P04629 33-796 F589L): as the sequence (P04629 33-796) above, with F557L counted along it
Chain of TrkA G595R (P04629 33-796 G595R): as the sequence (P04629 33-796) above, with G563R counted along it
Chain of TrkC G623R (Q16288 32-839 S70N/G623R): as the sequence (Q16288 32-839 S70N/F617L) above, with L586F, G592R counted along it
Chain of TrkB WT (Q16620 32-822): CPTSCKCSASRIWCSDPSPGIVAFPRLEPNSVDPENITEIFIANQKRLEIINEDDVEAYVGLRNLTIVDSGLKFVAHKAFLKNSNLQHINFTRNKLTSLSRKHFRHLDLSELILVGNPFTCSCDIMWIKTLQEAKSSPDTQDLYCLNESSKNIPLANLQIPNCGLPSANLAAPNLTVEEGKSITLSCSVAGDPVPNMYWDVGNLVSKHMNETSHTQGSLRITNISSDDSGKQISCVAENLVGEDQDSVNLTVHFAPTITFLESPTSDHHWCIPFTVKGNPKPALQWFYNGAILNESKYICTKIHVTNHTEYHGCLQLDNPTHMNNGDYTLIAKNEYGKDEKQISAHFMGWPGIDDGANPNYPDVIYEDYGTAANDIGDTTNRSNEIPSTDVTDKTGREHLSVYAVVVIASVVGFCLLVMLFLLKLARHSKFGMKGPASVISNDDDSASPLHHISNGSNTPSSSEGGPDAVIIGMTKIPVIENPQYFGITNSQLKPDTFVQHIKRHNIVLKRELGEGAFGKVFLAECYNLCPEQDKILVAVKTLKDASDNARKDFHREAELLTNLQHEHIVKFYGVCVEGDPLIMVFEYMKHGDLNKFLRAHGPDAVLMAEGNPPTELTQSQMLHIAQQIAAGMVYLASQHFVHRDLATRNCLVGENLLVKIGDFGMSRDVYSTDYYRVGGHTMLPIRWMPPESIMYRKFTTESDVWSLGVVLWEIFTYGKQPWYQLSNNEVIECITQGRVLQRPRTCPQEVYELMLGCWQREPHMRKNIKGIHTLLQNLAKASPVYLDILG
Chain of TrkB G623R (Q16620 32-822 G623R): as the sequence (Q16620 32-822) above, with G592R counted along it
Chain of TrkC WT (Q16288 32-839 S70N): as the sequence (Q16288 32-839 S70N/F617L) above, with L586F counted along it
Chain of TrkA V573M (P04629 33-796 V573M): as the sequence (P04629 33-796) above, with V541M counted along it

As usually defined, the IC50 is the concentration needed to halve the response being measured. As for `O=C1NCCCOc2ncc(F)cc2[C@H]2CCCN2c2ccn3ncc1c3n2` [Compound 16, (6R)-9-fluoro-13-oxa-2,11,17,21,22,25-hexaazapentacyclo[17.5.2.0^2,6.0^7,12.0^22,26]-hexacosa-1(25),7,9,11,19(26),20,23-heptaen-18-one], the IC50 on TrkA WT is < 0.5 nM; at TrkA V573M it was < 5 nM; against TrkA F589L it was < 1 nM; against TrkA G595R, 0.9 nM; against TrkA G667C, 1.1 nM; at TrkA G667S it was 0.4 nM. Also, the half-maximal inhibitory concentration (IC50) was 2.9 nM against TrkB WT; 0.9 nM on TrkB G623R; < 2.5 nM at TrkC WT; 1.3 nM against TrkC G623R; < 5 nM against TrkC F617L.
As for `O=C1NC[C@@H](O)COc2ncc(F)cc2[C@H]2CCCN2c2ccn3ncc1c3n2` [Compound 17, (6R,15R)-9-fluoro-15-hydroxy-13-oxa-2,11,17,21,22,25-hexaazapentacyclo-[17.5.2.0^2,6.0^7,12.0^22,26]-hexacosa-1(25), 7,9,11,19(26),20,23-heptaen-18-one], the IC50 was < 0.5 nM at TrkA WT; < 5 nM against TrkA V573M; 2.1 nM on TrkA F589L; 1.5 nM against TrkA G595R; 2.6 nM against TrkA G667C; 0.7 nM against TrkA G667S. Further, the IC50 is 3.6 nM against TrkB WT; 1.1 nM at TrkB G623R; < 2.5 nM against TrkC WT; 1.8 nM against TrkC G623R; < 5 nM against TrkC F617L.
`O=C1NCCCOc2ccc(F)cc2[C@H]2CCCN2c2ccn3ncc1c3n2` [Compound 19, (6R)-9-fluoro-13-oxa-2,17,21,22,25-pentaazapentacyclo[17.5.2.0^2,6.0^7,12.0^22,26] hexacosa-1(25),7,9,11,19(26),20,23-heptaen-18-one]: the half-inhibitory concentration (IC50) at TrkA WT is 0.5 nM; on TrkA V573M it was < 5 nM; against TrkA F589L, 1.1 nM; against TrkA G595R, 1.2 nM; against TrkA G667C, 0.9 nM; at TrkA G667S, 0.3 nM. Further, the IC50 against TrkB WT was 4.4 nM; against TrkB G623R, 1 nM; against TrkC WT, < 2.5 nM; against TrkC G623R it was 1.8 nM; against TrkC F617L it was 5.1 nM.
As to `O=C1NCCCOc2cccc(n2)[C@H]2CCCN2c2ccn3ncc1c3n2` [Compound 20, (6R)-12-oxa-2,16,20,21,24,26-hexaazapentacyclo[16.5.2.^17,11.0^2,6.0^21,25]-hexacosa-1(24),7(26),8,10,18(25),19,22-heptaen-17-one], the IC50 is < 0.5 nM at TrkA WT; 36.5 nM on TrkA V573M; 48.3 nM at TrkA F589L; 2.7 nM against TrkA G595R; 13.3 nM against TrkA G667C; 3.2 nM against TrkA G667S. The half-maximal inhibitory concentration (IC50) against TrkB WT is 3.1 nM; on TrkB G623R it was 3.1 nM; on TrkC WT, < 2.5 nM; against TrkC G623R, 3.1 nM; against TrkC F617L, 18.3 nM.
On to `CC(=O)N1CCOc2ccc(F)cc2[C@H]2CCCN2c2ccn3ncc(c3n2)C1` [Compound 21, 1-[(6R)-9-fluoro-13-oxa-2,16,20,21,24-pentaazapentacyclo[16.5.2.0^2,6.0^7,12.0^21,25]pentacosa-1(24),7,9,11,18(25),19,22-heptaen-16-yl]ethan-1-one], for which the half-inhibitory concentration (IC50) against TrkA WT stood at 0.6 nM; at TrkA V573M, 29.1 nM; against TrkA F589L it was 66.3 nM; against TrkA G595R it was 7.3 nM; on TrkA G667C it was 22.2 nM; on TrkA G667S, 8.4 nM. The half-inhibitory concentration (IC50) against TrkB WT was 5.6 nM; against TrkB G623R, 12.4 nM; against TrkC WT, < 2.5 nM; at TrkC G623R, 7.8 nM; at TrkC F617L it was 48.5 nM.
As for `O=C1OCCOc2ncc(F)cc2[C@H]2CCCN2c2ccn3ncc1c3n2` [Compound 22, (6R)-9-fluoro-13,16-dioxa-2,11,20,21,24-pentaazapentacyclo[16.5.2.0^2,6.0^7,12.0^21,25]-pentacosa-1(24),7,9,11,18(25),19,22-heptaen-17-one], the IC50 at TrkA WT was 0.5 nM; against TrkA V573M it was < 5 nM; against TrkA F589L, 8.4 nM; against TrkA G595R it was 1.5 nM; against TrkA G667C it was 5.7 nM; on TrkA G667S, 0.9 nM. Further, the 50% inhibitory concentration (IC50) against TrkB WT is 2.9 nM; against TrkB G623R it was 1.3 nM; on TrkC WT, < 2.5 nM; against TrkC G623R, 1.5 nM; at TrkC F617L, 5.4 nM.
For `O=C1NCC(F)(F)COc2ncc(F)cc2[C@H]2CCCN2c2ccn3ncc1c3n2` [Compound 23, (6R)-9,15,15-trifluoro-13-oxa-2,11,17,21, 22,25-hexaazapentacyclo [17.5.2.0^2,6.0^7,12.0^22,26]hexacosa-1(25),7,9, 11,19(26),20,23-heptaen-18-one], the IC50 against TrkA WT was 0.7 nM; against TrkA V573M it was < 5 nM; against TrkA F589L, < 1 nM; at TrkA G595R it was 1.6 nM; against TrkA G667C, 0.8 nM; on TrkA G667S, 0.3 nM. Further, the 50% inhibitory concentration (IC50) amounted to 6.1 nM at TrkB WT; 1.1 nM against TrkB G623R; 2.7 nM on TrkC WT; 2.1 nM against TrkC G623R; 5.8 nM on TrkC F617L.
For `C[C@H]1CNC(=O)c2cnn3ccc(nc23)N2CCC[C@@H]2c2cc(F)cn(c2=O)C1` [Compound 24, (6R,13S)-9-fluoro-13-methyl-2,11,15, 19,20,23-hexaazapentacyclo [15.5.2.^17,11.0^2,6.0^20,24]pentacosa-1(23),7,9,17(24),18,21-hexaene-16,25-dione], the half-inhibitory concentration (IC50) at TrkA WT was 0.5 nM; on TrkA V573M it was 38.3 nM; on TrkA F589L, 86.8 nM; against TrkA G595R, 3.3 nM; on TrkA G667C it was 22.3 nM; against TrkA G667S, 4.7 nM. Further, the IC50 against TrkB WT was 4.7 nM; at TrkB G623R it was 4.2 nM; against TrkC WT, < 2.5 nM; against TrkC G623R it was 4.5 nM; at TrkC F617L, 61.9 nM.
For the molecule `CC1(C)CNC(=O)c2cnn3ccc(nc23)N2CCC[C@@H]2c2cc(F)cnc2OC1` [Compound 25, (6R)-9-fluoro-15,15-dimethyl-13-oxa-2,11,17,21,22,25-hexaazapentacyclo [17,5.2.0^2,6.0^7,12.0^22,26]hexacosa-1(25),7,9,11,19(26),20,23-heptaen-18-one], the IC50 against TrkA WT is 1 nM; against TrkA V573M, < 5 nM; at TrkA F589L, 1.1 nM; on TrkA G595R, 3 nM; against TrkA G667C, 1 nM; against TrkA G667S it was 0.5 nM. For the same molecule, the concentration for half-maximal inhibition (IC50) against TrkB WT turned out to be 8.7 nM; at TrkB G623R, 2.3 nM; on TrkC WT, 4 nM; against TrkC G623R, 4.7 nM; against TrkC F617L, 8.1 nM.
As to `O=C1NC[C@H](O)COc2ccc(F)cc2[C@H]2CC(F)(F)CN2c2ccn3ncc1c3n2` [Compound 26, (15S)-4,4,9-trifluoro-15-hydroxy-13-oxa-2,17,21,22.25-pentaazapentacyclo [17.5.2.0^2,6.0^7,12.0^22,26]hexacosa-1(25),7(12),8,10,19(26),20,23-heptaen-18-one], the IC50 at TrkA WT was 0.6 nM; against TrkA V573M it was < 5 nM; on TrkA F589L, 3.9 nM; at TrkA G595R it was 2.1 nM; against TrkA G667C, 1 nM; at TrkA G667S it was 0.5 nM. Further, the concentration for half-maximal inhibition (IC50) on TrkB WT was 3.3 nM; on TrkB G623R it was 1.8 nM; against TrkC WT, < 2.5 nM; on TrkC G623R, 2.6 nM; on TrkC F617L, 9.6 nM.

Values taken from patent publication US10370727B2, “Point mutations in TRK inhibitor-resistant cancer and methods relating to the same” (Loxo Oncology, Inc., priority 2015, dated 2019).
